Source: PubChem BioAssay AID2060623 (Molecular Pharmacology Branch, DTP, NCI, 2025)

System: 227483-062-R1-J1-PDC complex spheroids with HUVEC/MSC, viability
Experiment: Anticancer human tumor 227483-062-R1-J1-PDC patient-derived pancreatic carcinoma cell line growth inhibition [CLK]
Details: for IC50: curve of first compound; for viability, T/C: stronger effect = lower value; active = viability on the fitted dose curve at most 10% of control; inactive = the rest
Text: A high-throughput screen of multi-cell type tumor spheroids was designed to identify active combinations of […] and targeted small molecules. Complex spheroids include a stromal component modeled by human endothelial cells (HUVEC) and fibroblasts modeled by human mesenchymal stem cells (MSCs). The concentration ranges selected for each drug and investigational agent were based upon clinically achievable concentrations if the clinical Cmax of the agent was known.
Compounds. The drugs and investigational agents: cirtuvivint (SM08502; NSC835563), CC-671 (NSC850746), vemurafenib (NSC761431), tapotoclax (NSC804041), sotorasib (NSC818433), adagrasib (NSC831453), MRTX-1133 (NSC836407), BAY2416964 (NSC825713), copanlisib (NSC816437), inavolisib (NSC800729), abemaciclib (NSC768073), osimertinib (NSC779217), entinostat (NSC756642), eltanexor (KPT-8602, NSC794443), venetoclax (NSC766270), ceralasertib (NSC777638), bortezomib (NSC756655), olaparib (NSC753686), talazoparib (NSC767125), alisertib (NSC759677), peposertib (NSC802822), gemcitabine (NSC613327), 5-fluorouracil (NSC19893), SN-38 (NSC673596), oxaliplatin (NSC266046), paclitaxel (NSC125973), and doxorubicin (NSC123127), were obtained from the National Cancer Institute (NCI) Developmental Therapeutics Program Chemical Repository. The FDA-approved anticancer drug set is available from the Developmental Therapeutics Program at https://dtp.cancer.gov/organization/dscb/obtaining/available plates.htm. […] The stock solutions were prepared in dimethyl sulfoxide (DMSO, Sigma-Aldrich, St. Louis, MO, cat. D2650), except for the platinum complexes which were prepared in saline (Quality Biological, Gaithersburg, MD, cat. 114-055-101), at 800-fold the tested concentration and stored at -70 degrees C prior to their use. All drugs and investigational agents were tested over a range starting from a high concentration at or near the clinical Cmax and decreasing in half-log increments. If the clinical Cmax for an agent had not been determined, the highest concentration tested was 10 microM.
Cell Culture. All cells were maintained in an incubator at 37 degrees C and 5% CO2 with 95% humidity. The PDC lines were cultured according to standard operating procedures established by the NCI PDMR. Briefly, all PDCs were thawed and cultured in Matrigel-coated flasks prepared with a working solution of 1X Ham's F-12 nutrient mix, without supplementation (Invitrogen, Waltham, MA, cat. 11765054), 100 U/mL penicillin-streptomycin (Invitrogen, cat. 15140122), and 2.5% Matrigel (Corning Inc., Corning, NY, cat. 354248) for the first three passages. The 947758-054-R-J2-PDC line was cultured in 6B/Colon 1A media, which includes advanced DMEM/F-12 (Thermo Fisher Scientific, cat. 12634028), 10 mM HEPES (Thermo Fisher Scientific, cat. 15630080), 1X GlutaMAX supplement (Thermo Fisher Scientific, cat. 35050061), 0.1 mg/mL primocin (InvivoGen, cat. ant-pm-2), 10% defined fetal bovine serum, heat inactivated (HyClone Laboratories Inc., cat. SH30070.03HI), 1.25 mM N-Acetyl-L-cysteine (Sigma-Aldrich, cat. A9165), 10 mM nicotinamide (Sigma-Aldrich, cat. N0636), 1X B-27 supplement (Thermo Fisher Scientific, cat. 17504044), 1X N-2 supplement (Thermo Fisher Scientific, cat. 17502048), and 10 microM Y-27632 dihydrochloride (Tocris Bioscience, cat. 1254). The 876862-298-R-J1-PDC was cultured in 6E media, which includes all 6B/Colon 1A media components plus 50% L-WRN conditioned media (ATCC, cat. CRL-3276), 50 ng/mL recombinant human EGF recombinant protein (hEGF; Thermo Fisher Scientific, cat. PHG0311), 10 ng/mL recombinant human fibroblast growth factor 10 (hGFG-10; PeproTech, cat. 100-26), 1 ng/mL recombinant human fibroblast growth factor 2 (hFGF-2; PeproTech, cat. 100-18B), and 1 µM prostaglandin E2 (PGE2; Tocris, cat. 2296). The 227483-062-R1-J1-PDC line was cultured in Panc media, containing all 6E components except hFGF-2, with the addition of 500 nM SB-431542 (Selleckchem, cat. S1067) and 10 nM gastrin (Tocris, cat. 3006). […]

[1] = second compound 0.0316 µM, first compound 0.0316 µM
[2] = second compound 0.0316 µM, first compound 0.1 µM
[3] = second compound 0.0316 µM, first compound 0.316 µM
[4] = second compound 0.0316 µM, first compound 1 µM
[5] = second compound 0.0316 µM, first compound 3.16 µM
[6] = second compound 0.0316 µM, first compound 10 µM
[7] = second compound 0.1 µM, first compound 0.0316 µM
[8] = second compound 0.1 µM, first compound 0.1 µM
[9] = second compound 0.1 µM, first compound 0.316 µM
[10] = second compound 0.1 µM, first compound 1 µM
[11] = second compound 0.1 µM, first compound 3.16 µM
[12] = second compound 0.1 µM, first compound 10 µM
[13] = second compound 0.316 µM, first compound 0.0316 µM
[14] = second compound 0.316 µM, first compound 0.1 µM
[15] = second compound 0.316 µM, first compound 0.316 µM
[16] = second compound 0.316 µM, first compound 1 µM
[17] = second compound 0.316 µM, first compound 3.16 µM
[18] = second compound 0.316 µM, first compound 10 µM
[19] = second compound 1 µM, first compound 0.0316 µM
[20] = second compound 1 µM, first compound 0.1 µM
[21] = second compound 1 µM, first compound 0.316 µM
[22] = second compound 1 µM, first compound 1 µM
[23] = second compound 1 µM, first compound 3.16 µM
[24] = second compound 1 µM, first compound 10 µM
[25] = second compound 3.16 µM, first compound 0.0316 µM
[26] = second compound 3.16 µM, first compound 0.1 µM
[27] = second compound 3.16 µM, first compound 0.316 µM
[28] = second compound 3.16 µM, first compound 1 µM
[29] = second compound 3.16 µM, first compound 3.16 µM
[30] = second compound 3.16 µM, first compound 10 µM
[31] = second compound 10 µM, first compound 0.0316 µM
[32] = second compound 10 µM, first compound 0.1 µM
[33] = second compound 10 µM, first compound 0.316 µM
[34] = second compound 10 µM, first compound 1 µM
[35] = second compound 10 µM, first compound 3.16 µM
[36] = second compound 10 µM, first compound 10 µM
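Also: spheroids exposed to compounds for seven days before readout.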
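For viability, T/C in this document: percent of DMSO vehicle control luminescence as 100% viability.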

CC1(C)CCC(CN2CCN(c3ccc(C(=O)NS(=O)(=O)c4ccc(NCC5CCOCC5)c([N+](=O)[O-])c4)c(Oc4cnc5[nH]ccc5c4)c3)CC2)=C(c2ccc(Cl)cc2)C1 + CN1CCN(c2cc(C(=O)Nc3cc4cc(-c5cnn(C)c5)ccc4cn3)ccn2)CC1
active: viability, T/C [12] 6.59% | viability, T/C [13] 5.04% | viability, T/C [14] 6.53% | viability, T/C [15] 5.51% | viability, T/C [16] 5.88% | viability, T/C [17] 6.54% | viability, T/C [18] 1.59% | viability, T/C [19] 2.1% | viability, T/C [20] 2.74% | viability, T/C [21] 2.88% | viability, T/C [22] 2.08% | viability, T/C [23] 1.44% | viability, T/C [24] 0.36% | viability, T/C [25] 3.39% | viability, T/C [26] 4.13% | viability, T/C [27] 2.75% | viability, T/C [28] 2.22% | viability, T/C [29] 2.43% | viability, T/C [30] 2.73% | viability, T/C [31] 2.85% | viability, T/C [32] 2.4% | viability, T/C [33] 1.5% | viability, T/C [34] 4.14% | viability, T/C [35] 1.34% | viability, T/C [36] 0.39%
< 31.6 nM: IC50 (second compound 0.316 µM) | IC50 (second compound 1 µM) | IC50 (second compound 3.16 µM) | IC50 (second compound 10 µM)
4230 nM: IC50 (second compound 0.1 µM)
5670 nM: IC50 (second compound 0.0316 µM)
inactive: viability, T/C [1] 93.9% | viability, T/C [2] 96.5% | viability, T/C [3] 110% | viability, T/C [4] 110% | viability, T/C [5] 89.8% | viability, T/C [6] 11.5% | viability, T/C [7] 58% | viability, T/C [8] 58.1% | viability, T/C [9] 63.1% | viability, T/C [10] 62.7% | viability, T/C [11] 81.3%

Nc1ccn(C2OC(CO)C(O)C2(F)F)c(=O)n1 (centres undefined) + CNC(=O)c1ccc(Nc2nc(OC3CCCC3)c3c(-c4ccc5nc(C)oc5c4)c[nH]c3n2)c(OC)c1
67.5 nM: IC50 (second compound 0.0316 µM)
inactive: viability, T/C [1] 77.5% | viability, T/C [2] 34.3% | viability, T/C [3] 34.2% | viability, T/C [4] 34.4% | viability, T/C [5] 28.2% | viability, T/C [6] 20% | viability, T/C [7] 93.3% | viability, T/C [8] 36.2% | viability, T/C [9] 35.6% | viability, T/C [10] 34.2% | viability, T/C [11] 26.8% | viability, T/C [12] 19.3% | viability, T/C [13] 62.2% | viability, T/C [14] 32.6% | viability, T/C [15] 27.1% | viability, T/C [16] 28.9% | viability, T/C [17] 21.8% | viability, T/C [18] 15.8% | viability, T/C [19] 49.2% | viability, T/C [20] 28.6% | viability, T/C [21] 20.2% | viability, T/C [22] 21.1% | viability, T/C [23] 15.5% | viability, T/C [24] 12.6% | viability, T/C [25] 29% | viability, T/C [26] 20.8% | viability, T/C [27] 19.6% | viability, T/C [28] 15.9% | viability, T/C [29] 13.3% | viability, T/C [30] 11% | viability, T/C [31] 23.6% | viability, T/C [32] 22% | viability, T/C [33] 16.7% | viability, T/C [34] 15.2% | viability, T/C [35] 13.6% | viability, T/C [36] 9.42%
52.4 nM: IC50 (second compound 0.316 µM)
< 31.6 nM: IC50 (second compound 1 µM) | IC50 (second compound 3.16 µM) | IC50 (second compound 10 µM)
78.5 nM: IC50 (second compound 0.1 µM)
